This is an account of results in patent publication US20080306028A1, “Erianin Salts, Their Preparation Methods and Pharmaceutical Compositions Containing the Same” (priority 2005, published 2008).

Read-outs that look alike come from different tables or passages of the source.

One data set is described as follows: solubility in water. The data set is classed as physicochemical. Conditions: product of example 1. Here is the method: As the water-solubility of Erianin is low, the solubility in water being just <1 mg/ml, its preparation performance and clinical application are limited, so it is necessary to study the salts that can improve its water-solubility. At present, there is not any literature on the salts of Erianin and it's preparing process.
Cooling the crude acyl chloride in ice bath, adding sodium hydroxide solution (2 mol/L) while stirring till the PH value of the mixture is between 8˜10, stirring for 8 hours at 50° C.˜80° C., filtering to remove the insoluble substance, decompressing to evaporate most of the solvent, cooling for the white solid to be separated, which is the crude disodium phosphate of Erianin; Dissolving the crude product with ethanol while heated, filtering to remove the insoluble solid while hot, and cooling the filtrate for separated crystal as pure disodium phosphate of Erianin (6.0 g), a white crystal product with a yield of 86% m.p. 266-269° C., (splitting), dissolubility in water: 200 mg/ml.

In the next data set the test system is Kunming mice. The data set is described as follows: LD50 determination of disodium phosphate of Erianin. Format: in vivo. As to conditions: for deaths, death rate in total: 10 mice. On the procedure: Experimental animal: Kunming mice, provided by Shanghai Slac Laboratory Animal Co., Ltd., weight being between 18˜22 g, half and half of female and male.
Reagent: 0.9% NaCl, disodium phosphate of Erianin (AP), provided by Zhejiang Cell Biomedical Research Co., Ltd., which is prepared by the process above, bitter acid.
(1) Experimental animal: Kunming mice, set up in 7 groups, 10 mice every group and half and half of female and male. Marked by bitter acid.
(2) In every group, administering by vena caudalis injection according to body weight of 1300 mg/kg, 1250 mg/kg, 1200 mg/kg, 1150 mg/kg, 1100 mg/kg, 1050 mg/kg, 1000 mg/kg.
(3) Observing at 0.25 h, 0.5 h, 1 h, 2 h, 4 h, 24 h respectively after administration and recording the death rate; then observing once every day and recording the death rate (table 1) for 14 days; putting the mice still alive to death on the 15th day and giving pathological anatomy.

Another data set deals with S180 tumor. As to conditions: for Weight 10 d: body weight day 10; for Tumor weight / rate of tumor inhibition: day 10; for Weight 0 d: body weight day 0. The source says: Samples: disodium phosphate of Erianin (AP, prepared by the process of example 1) prepared the concentration needed with physiologic saline.
Control medicine: cyclophosphamide for injection (CTX), Shanghai Hualian Pharmaceutical Co., Ltd, batch number: 020806. dissolved with physiologic saline for use.
Fifty Kunming mice, female, weight: […], provided by the animal house in Shanghai Institute of Pharmaceutical Industry.
Two S180 ascites tumor mice, provided by the animal house in Shanghai Institute of Pharmaceutical Industry.
Drawing ascites under aseptic condition from S180 ascites tumor mice, counting the cells, diluting to 1-2×10^7/ml with physiologic saline, giving subcutaneous inoculation in the armpit of the mice with 0.2 ml each, randomly dividing the mice equally into five groups the next day, ten in each group.
Dosage for administration (mg/kg./d): AP 25 mg/kg, 75 mg/kg, 225 mg/kg
Means of administration: intravenous injection
The control medicine, cyclophosphamide, administered by intravenous injection, the dosage being 30 mg/kg×9d.
And setting up blank control group.
Administering medicine to the mice by weight the next day of inoculation, […] 0.5 ml/20 g for 9 days, by weight, and putting them to death on the tenth day after inoculation, weighing the tumor and calculating the rate of tumor inhibition.
Assessing the result according to the following formula: […]

The conditions of data set [1]: background statement; cited from earlier work.
The next data set has as its system liver cancer of mouse. Conditions: cited from earlier work.
The test system of data set [2] is human leukemia HL-60 cells. Conditions: cited from earlier work.
A further data set relates to tumor cell strain K256. As to conditions: among dihydrobibenzyls and phenanthrenes in Dendrobium chrysotoxum; cited from earlier work.

Regarding “3,4,5,4′-tetramethoxyl diphenylethane-3′-O-disodic phosphate [AP]”, the dissolubility in water in the data set “solubility in water” stood at 200 mg/mL. Besides, the “deaths, death rate in total” value with Kunming mice (1000 mg/kg i.v.) came to 0; in the data set with Kunming mice (1050 mg/kg i.v.) it was 1; in the data set with Kunming mice (1100 mg/kg i.v.), 3; with Kunming mice (1150 mg/kg i.v.), 1; with Kunming mice (1200 mg/kg i.v.), 3; in the data set on Kunming mice (1250 mg/kg i.v.), 6. Moreover, the “deaths, death rate in total” value in the data set with Kunming mice (1300 mg/kg i.v.) came out at 7. Further, the deaths in the data set with Kunming mice (1050 mg/kg i.v., day 1) came to 1; with Kunming mice (1100 mg/kg i.v., day 1), 3; in the data set on Kunming mice (1150 mg/kg i.v., day 1) it was 1; with Kunming mice (1200 mg/kg i.v., day 5), 1; with Kunming mice (1200 mg/kg i.v., day 6), 1; with Kunming mice (1200 mg/kg i.v., hours 0-4), 1. For the same compound, the deaths is given as 3 with Kunming mice (1250 mg/kg i.v., day 1); 2 with Kunming mice (1250 mg/kg i.v., day 2); 1 with Kunming mice (1250 mg/kg i.v., hours 0-4); 6 in the data set with Kunming mice (1300 mg/kg i.v., day 1); 1 with Kunming mice (1300 mg/kg i.v., day 3). The compound further yielded a median lethal dose (LD50) in the data set on Kunming mice (Kunming mice, vena caudalis injection, 14 days observation) of 1243.0377 mg/kg. Also, in the data set on Kunming mice (mice died during the experiment and mice executed after 14 days), the pathological anatomy result is on record as “no obvious pathological change”. Further, the entries for the “Weight 10 d” value in the data set on S180 tumor (25 mg/kg i.v. for 9 days), in the data set with S180 tumor (75 mg/kg i.v. for 9 days) and with S180 tumor (225 mg/kg i.v. for 9 days) were 22.93 ± 1.28 g, 22.75 ± 2.25 g and 22.01 ± 3.46 g, respectively. Also, the Tumor weight in the data set with S180 tumor (25 mg/kg i.v. for 9 days) worked out at 1.42 ± 0.26; in the data set on S180 tumor (75 mg/kg i.v. for 9 days) it was 0.82 ± 0.20; in the data set with S180 tumor (225 mg/kg i.v. for 9 days), 0.69 ± 0.08. The entries for the “rate of tumor inhibition” value with S180 tumor (25 mg/kg i.v. for 9 days), in the data set on S180 tumor (75 mg/kg i.v. for 9 days) and with S180 tumor (225 mg/kg i.v. for 9 days) were 42%, 67% and 72%, respectively. The entries for the “Weight 0 d” value with S180 tumor (25 mg/kg i.v.), in the data set with S180 tumor (75 mg/kg i.v.) and in the data set on S180 tumor (225 mg/kg i.v.) were 18.37 ± 1.58 g, 18.41 ± 1.74 g and 19.65 ± 1.26 g, respectively.

With `O=P1(N(CCCl)CCCl)NCCCO1` (centres unmarked) [CTX, cyclophosphamide, reference compound], the “Weight 0 d” value in the data set with S180 tumor (30 mg/kg i.v.) stood at 19.78 ± 1.20 g. In the data set on S180 tumor (30 mg/kg×9d i.v.), the “Weight 10 d” value is 19.58 ± 2.54 g, the Tumor weight worked out at 0.41 ± 0.17 and the “rate of tumor inhibition” value came to 83%.

Turning to `COc1ccc(CCc2cc(OC)c(OC)c(OC)c2)cc1O` [Erianin], in data set [1], the solubility in water was less than 1 mg/mL. For the same compound, the tumor inhibitory rate in the data set with liver cancer of mouse is recorded as 50.82%. In data set [2], the “growth of human leukemia HL-60 cells” value is “significantly inhibited”. Further, in the data set on tumor cell strain K256, the “inhibitory effect on the growth of tumor cell strain K256” value is reported as “the most active”.
